Source: patent US8912213B2, “Synthesis and use of dual tyrosyl-DNA phosphodiesterase I (TDP1)- topoisomerase I (TOP1) inhibitors” (Purdue Research Foundation, priority 2012, dated 2014)
Entries after “also recorded” stand apart in the source; their conditions may differ. Read-outs that look alike come from different tables or passages of the source.

Assays:
Human recombinant Top1 = Human recombinant Top1 (Homo sapiens (Human), UniProt P11387); assay: Topoisomerase I-mediated DNA cleavage reactions; format: biochemical; conditions: for Top1 (compound-induced DNA cleavage, semiquantitative scale): series (B), relative to 1 μM camptothecin (90) or MJ-III-65 (91); for Top1 (compound-induced DNA cleavage due to Top1 inhibition): semiquantitative;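 as to all read-outs here: 3′-end radiolabeled DNA substrate (about 2 nM) incubated with recombinant Top1 and compound for 20 min at 25 °C, cleavage products resolved by denaturing PAGE and phosphoimaging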
Chain of Human recombinant Top1 (P11387 whole entry): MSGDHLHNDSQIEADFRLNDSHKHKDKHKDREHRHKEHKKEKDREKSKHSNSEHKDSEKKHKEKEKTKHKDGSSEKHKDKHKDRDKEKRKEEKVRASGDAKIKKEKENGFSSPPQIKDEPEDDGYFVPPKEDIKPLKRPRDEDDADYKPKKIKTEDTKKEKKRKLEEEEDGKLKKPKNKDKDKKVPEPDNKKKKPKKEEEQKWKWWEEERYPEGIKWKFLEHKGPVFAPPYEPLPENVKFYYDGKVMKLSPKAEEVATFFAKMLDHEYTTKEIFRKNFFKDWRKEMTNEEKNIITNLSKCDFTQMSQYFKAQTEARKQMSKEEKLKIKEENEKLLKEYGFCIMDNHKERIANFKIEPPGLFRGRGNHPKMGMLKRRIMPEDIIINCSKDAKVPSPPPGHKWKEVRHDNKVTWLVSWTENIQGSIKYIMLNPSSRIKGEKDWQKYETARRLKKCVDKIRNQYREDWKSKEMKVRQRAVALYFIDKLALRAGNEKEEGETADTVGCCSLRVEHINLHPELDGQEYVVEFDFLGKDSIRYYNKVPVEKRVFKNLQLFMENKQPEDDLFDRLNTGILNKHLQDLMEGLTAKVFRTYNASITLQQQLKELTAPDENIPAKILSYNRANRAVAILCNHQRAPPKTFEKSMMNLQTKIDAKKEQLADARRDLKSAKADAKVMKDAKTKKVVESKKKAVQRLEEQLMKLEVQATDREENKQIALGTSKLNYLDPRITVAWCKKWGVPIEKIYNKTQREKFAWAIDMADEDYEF
Protocol: Additionally, all indenoisoquinoline sulfonates and sulfonamides were tested for Top1 cleavage complex poisoning in a Top1-mediated DNA cleavage assay.
Topoisomerase I-Mediated DNA Cleavage Reactions. Human recombinant Top1 was purified from baculovirus as previously described. DNA cleavage reactions were prepared as previously reported with the exception of the DNA substrate. […] Unincorporated [^32P]dGTP was removed using mini Quick Spin DNA columns (Roche, Indianapolis, Ind.), and the eluate containing the 3′-end-labeled DNA substrate was collected. Approximately 2 nM radiolabeled DNA substrate was incubated with recombinant Top1 in 20 μL of reaction buffer [10 mM Tris-HCl (pH 7.5), 50 mM KCl, 5 mM MgCl2, 0.1 mM EDTA, and 15 μg/mL BSA] at 25° C. for 20 min in the presence of various concentrations of compounds. The reactions were terminated by adding SDS (0.5% final concentration) followed by the addition of two volumes of loading dye (80% formamide, 10 mM sodium hydroxide, 1 mM sodium EDTA, 0.1% xylene cyanol, and 0.1% bromphenol blue). Aliquots of each reaction mixture were subjected to 20% denaturing PAGE. Gels were dried and visualized by using a phosphoimager and ImageQuant software (Molecular Dynamics).
Topoisomerase I-Mediated DNA Cleavage Reactions. Top1 reactions were performed as recently described. […] The reactions were terminated by adding SDS (0.5% final concentration) followed by the addition of two volumes of loading dye (80% formamide, 10 mM sodium hydroxide, 1 mM sodium EDTA, 0.1% xylene cyanol, and 0.1% bromphenol blue). Reactions were subjected to 20% denaturing PAGE. Gels were dried and visualized by using a Typhoon 8600 and ImageQuant software (Molecular Dynamics).

Tdp1 = Tdp1 (Homo sapiens (Human), UniProt Q9NUW8); assay: Gel-based assay measuring the inhibition of recombinant Tdp1; format: biochemical;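 also: 5′-32P-labeled single-stranded DNA with 3′-phosphotyrosine incubated with 5 pM enzyme for 15 min at room temperature, inhibition seen as loss of 3′-phosphate product band by densitometry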
Chain of Tdp1 (Q9NUW8 whole entry): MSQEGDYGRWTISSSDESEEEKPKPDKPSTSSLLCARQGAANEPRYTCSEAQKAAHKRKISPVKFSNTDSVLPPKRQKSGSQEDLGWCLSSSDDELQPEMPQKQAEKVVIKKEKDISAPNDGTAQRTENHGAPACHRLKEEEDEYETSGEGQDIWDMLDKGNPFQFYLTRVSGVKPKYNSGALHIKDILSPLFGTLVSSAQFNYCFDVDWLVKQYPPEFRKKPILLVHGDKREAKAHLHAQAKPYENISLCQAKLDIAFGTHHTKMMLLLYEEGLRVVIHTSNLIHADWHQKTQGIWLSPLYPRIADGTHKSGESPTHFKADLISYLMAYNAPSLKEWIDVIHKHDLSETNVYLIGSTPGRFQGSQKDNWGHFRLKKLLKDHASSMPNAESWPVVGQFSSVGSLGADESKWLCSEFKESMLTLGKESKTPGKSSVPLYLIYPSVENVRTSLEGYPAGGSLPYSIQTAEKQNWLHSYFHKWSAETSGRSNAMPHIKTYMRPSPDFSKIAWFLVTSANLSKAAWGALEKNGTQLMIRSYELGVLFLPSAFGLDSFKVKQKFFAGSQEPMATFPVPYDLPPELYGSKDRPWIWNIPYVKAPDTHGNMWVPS
Protocol: Tdp1 inhibitory activity was measured by the drug's ability to inhibit the hydrolysis of the phosphodiester linkage between tyrosine and the 3′-end of the DNA substrate, and to prevent the generation of an oligonucleotide with a free 3′-phosphate (N14P). Therefore, the disappearance of the gel band for N14P indicated Tdp1 inhibition.
Gel-Based Assay Measuring the Inhibition of Recombinant Tdp1. A 5′-[^32P]-labeled single-stranded DNA oligonucleotide containing a 3′-phosphotyrosine (N14Y) was generated as described by Dexheimer et al. The DNA substrate was then incubated with 5 pM recombinant Tdp1 in the absence or presence of inhibitor for 15 min at room temperature in a buffer containing 50 mM Tris HCl, pH 7.5, 80 mM KCl, 2 mM EDTA, 1 mM DTT, 40 μg/ml BSA and 0.01% Tween-20. […] Gel images were scanned using a Typhoon 8600 (GE Healthcare) and densitometric analyses were performed using the ImageQuant software (GE Healthcare).

[1] = system: all human cancer cell lines successfully tested; assay: NCI screen, mean graph midpoint (MGM) for growth inhibition; conditions: for GI50: Homo sapiens, read-out: MGM (μM); for MGM: series (B), mean graph midpoint GI50, ± standard error where two determinations
OVCAR-3 = assay: NCI screen cytotoxicity, ovarian OVCAR-3; conditions: Homo sapiens, OVCAR-3, read-out: Cytotoxicity (GI50 in μM) ovarian OVCAR-3
UACC-62 = assay: NCI screen cytotoxicity, melanoma UACC-62; format: cell-based; conditions: Homo sapiens, 50% growth inhibition
DU-145 = assay: NCI screen cytotoxicity, prostate DU-145; format: cell-based; conditions: Homo sapiens, DU-145, read-out: Cytotoxicity (GI50 in μM) prostate DU-145; 50% growth inhibition
MDA-MB-435 = assay: NCI screen cytotoxicity, breast MDA-MB-435; format: cell-based; conditions: Homo sapiens, MDA-MB-435, read-out: Cytotoxicity (GI50 in μM) breast MDA-MB-435; 50% growth inhibition
HCT-116 = assay: NCI screen cytotoxicity, colon HCT-116; format: cell-based; conditions: Homo sapiens, 50% growth inhibition
SN12C = assay: NCI screen cytotoxicity, renal SN12C; format: cell-based; conditions: Homo sapiens, 50% growth inhibition
HOP-62 = assay: NCI screen cytotoxicity, lung HOP-62; format: cell-based; conditions: Homo sapiens, 50% growth inhibition
[2] = series (A), gel-based assay, rec. human Tdp1, read-out: IC50 (μM) recombinant Tdp1

With `CC(C)(C)OC(=O)NCCCn1c2c(c3ccc(NCC(=O)O)cc3c1=O)C(=O)c1ccccc1-2` [Compound 42 of (B), 2-((6-(3-((tert-Butoxycarbonyl)amino)propyl)-5,11-dioxo-6,11-dihydro-5H-indeno[1,2-c]isoquinolin-3-yl)amino)acetic Acid] as the compound, how does the “Top1 (compound-induced DNA cleavage, semiquantitative scale)” value (Human recombinant Top1) read?
Its value is 0.

What about the IC50 (Tdp1) of the same compound?
The IC50 was over 111 µM.

What about the “Tdp1 inhibitory activity (in words)” value (Tdp1) of the same compound?
Its value is “inactivity”.

What does the source list for `Cn1c2c(c3ccc(NC(=O)CC(=O)O)cc3c1=O)C(=O)c1ccccc1-2` [Compound 15 of (B), 3-[(6-Methyl-5,11-dioxo-6,11-dihydro-5H-indeno[1,2-c]isoquinolin-3-yl)amino]-3-oxopropanoic Acid]?
IC50 (Tdp1): > 111 µM; Tdp1 inhibitory activity (in words) (Tdp1): inactive

With `COC(=O)C(=O)Nc1ccc2c3c(n(C)c(=O)c2c1)-c1ccccc1C3=O` [Compound 9 of (B), Methyl 2-[(6-Methyl-5,11-dioxo-6,11-dihydro-5H-indeno[1,2-c]isoquinolin-3-yl)amino]-2-oxoacetate] as the compound, how does the “Top1 (compound-induced DNA cleavage, semiquantitative scale)” value (Human recombinant Top1) read?
Its value is 0.

And the IC50 (Tdp1)?
Its IC50 is over 111 µM.

And the “Tdp1 inhibitory activity (in words)” value (Tdp1)?
The value was “inactive”.

Which results are given for `COC(=O)CCC(=O)Nc1ccc2c3c(n(C)c(=O)c2c1)-c1ccccc1C3=O` [Compound 11 of (B), Methyl 4-[(6-Methyl-5,11-dioxo-6,11-dihydro-5H-indeno[1,2-c]isoquinolin-3-yl)amino]-4-oxobutanoate]?
Top1 (compound-induced DNA cleavage, semiquantitative scale) (Human recombinant Top1): (+); IC50 (Tdp1): > 111 µM

What does the source list for `COC(=O)CCCC(=O)Nc1ccc2c3c(n(C)c(=O)c2c1)-c1ccccc1C3=O` [Compound 12 of (B), Methyl 5-[(6-Methyl-5,11-dioxo-6,11-dihydro-5H-indeno[1,2-c]isoquinolin-3-yl)amino]-5-oxopentanoate]?
Top1 (compound-induced DNA cleavage, semiquantitative scale) (Human recombinant Top1): +; IC50 (Tdp1): > 111 µM

Which “Top1 (compound-induced DNA cleavage due to Top1 inhibition)” value (Human recombinant Top1; relative to 1 μM camptothecin) does the source give for `Cl.NCCCCCCCCCCCn1c2c(c3ccccc3c1=O)C(=O)c1ccccc1-2` [Compound 78 of (A)] here?
Its value is “+ (between 20 and 50%, activity)”.

And the IC50 (Tdp1; [2])?
The IC50 was 13 µM.

How did the “Top1 (compound-induced DNA cleavage, semiquantitative scale)” value (Human recombinant Top1) turn out when `COC(=O)CC(=O)Nc1ccc2c3c(n(C)c(=O)c2c1)-c1ccccc1C3=O` [Compound 10 of (B), Methyl 3-[(6-Methyl-5,11-dioxo-6,11-dihydro-5H-indeno[1,2-c]isoquinolin-3-yl)amino]-3-oxopropanoate] was run?
The value was 0.

And the IC50 (Tdp1)?
Its IC50 is over 111 µM.

For `Cl.NCCCn1c2c(c3ccc(NC(=O)CC(=O)O)cc3c1=O)C(=O)c1ccccc1-2` [Compound 33 of (B), 3-[(6-(3-Aminopropyl)-5,11-dioxo-6,11-dihydro-5H-indeno[1,2-c]isoquinolin-3-yl)amino]-3-oxopropanoic Acid Hydrochloride], which “Top1 (compound-induced DNA cleavage, semiquantitative scale)” value (Human recombinant Top1) is on record?
The value was “+”.

What about the IC50 (Tdp1) of the same compound?
The IC50 was over 111 µM.

With `Cl.NCCCn1c2c(c3ccc(NC(=O)CCC(=O)O)cc3c1=O)C(=O)c1ccccc1-2` [Compound 34 of (B), 4-[(6-(3-Aminopropyl)-5,11-dioxo-6,11-dihydro-5H-indeno[1,2-c]isoquinolin-3-yl)amino]-4-oxobutanoic Acid Hydrochloride] as the compound, how does the “Top1 (compound-induced DNA cleavage, semiquantitative scale)” value (Human recombinant Top1) read?
The value was “+”.

What about the IC50 (Tdp1) of the same compound?
Its IC50 is over 111 µM.

With `COc1ccc2c(c1)-c1c(c3ccc([N+](=O)[O-])cc3c(=O)n1CCCBr)C2=O` [Compound 49 of (B), 6-(3-Bromopropyl)-5,6-dihydro-8-methoxy-3-nitro-5,11-dioxo-11H-indeno[1,2-c]isoquinoline] as the compound, how does the “Top1 (compound-induced DNA cleavage, semiquantitative scale)” value (Human recombinant Top1) read?
Its value is “+++”.

And the IC50 (Tdp1)?
The IC50 was over 111 µM.

What about the “Tdp1 inhibitory activity (in words)” value (Tdp1) of the same compound?
The value was “very weak or inactive”.

What does the source list for `Cl.NCCCn1c2c(c3ccc(NC(=O)CCCCC(=O)O)cc3c1=O)C(=O)c1ccccc1-2` [Compound 36 of (B), 6-[(6-(3-Aminopropyl)-5,11-dioxo-6,11-dihydro-5H-indeno[1,2-c]isoquinolin-3-yl)amino]-6-oxohexanoic Acid Hydrochloride]?
Top1 (compound-induced DNA cleavage, semiquantitative scale) (Human recombinant Top1): +; IC50 (Tdp1): > 111 µM

Which results are given for `COc1ccc2c(c1)-c1c(c3ccc([N+](=O)[O-])cc3c(=O)n1CCCN1CCOCC1)C2=O` [Compound 53 of (B), 8-Methoxy-6-(3-morpholinopropyl)-3-nitro-5H-indeno[1,2-c]isoquinoline-5,11(6H)-dione]?
Top1 (compound-induced DNA cleavage, semiquantitative scale) (Human recombinant Top1): ++; IC50 (Tdp1): > 111 µM; Tdp1 inhibitory activity (in words) (Tdp1): very weak or inactive

Which “Top1 (compound-induced DNA cleavage, semiquantitative scale)” value (Human recombinant Top1) does the source give for `CCOC(=O)CNc1ccc2c3c(n(C)c(=O)c2c1)-c1ccccc1C3=O` [Compound 38 of (B), Ethyl 2-[(6-Methyl-5,11-dioxo-6,11-dihydro-5H-indeno[1,2-c]isoquinolin-3-yl)amino]acetate] here?
Its value is 0.

What about the IC50 (Tdp1) of the same compound?
Its IC50 is over 111 µM.

What about the “Tdp1 inhibitory activity (in words)” value (Tdp1; listed as 38) of the same compound?
The value was “inactivity; also recorded: inactive”.

With `Cl.NCCCn1c2c(c3ccc(NC(=O)C(=O)O)cc3c1=O)C(=O)c1ccccc1-2` [Compound 32 of (B), 2-[(6-(3-Aminopropyl)-5,11-dioxo-6,11-dihydro-5H-indeno[1,2-c]isoquinolin-3-yl)amino]-2-oxoacetic Acid Hydrochloride] as the compound, how does the “Top1 (compound-induced DNA cleavage, semiquantitative scale)” value (Human recombinant Top1) read?
Its value is “+”.

What about the IC50 (Tdp1) of the same compound?
Its IC50 is over 111 µM.

With `COC(=O)CCCCC(=O)Nc1ccc2c3c(n(C)c(=O)c2c1)-c1ccccc1C3=O` [Compound 13 of (B), Methyl 6-[(6-Methyl-5,11-dioxo-6,11-dihydro-5H-indeno[1,2-c]isoquinolin-3-yl)amino]-6-oxohexanoate] as the compound, how does the “Top1 (compound-induced DNA cleavage, semiquantitative scale)” value (Human recombinant Top1) read?
The value was 0.

And the IC50 (Tdp1)?
The IC50 was over 111 µM.

Which “Top1 (compound-induced DNA cleavage, semiquantitative scale)” value (Human recombinant Top1) does the source give for `Cl.NCCCn1c2c(c3ccc(NC(=O)CCCC(=O)O)cc3c1=O)C(=O)c1ccccc1-2` [Compound 35 of (B), 5-[(6-(3-Aminopropyl)-5,11-dioxo-6,11-dihydro-5H-indeno[1,2-c]isoquinolin-3-yl)amino]-5-oxopentanoic Acid Hydrochloride] here?
Its value is 0.

And the IC50 (Tdp1)?
Its IC50 is over 111 µM.

Which results are given for `O=C1c2ccccc2-c2c1c1ccc([N+](=O)[O-])cc1c(=O)n2CCCO` [Compound 63 of (B)]?
GI50 [1]: 0.89 ± 0.22 µM; GI50 (OVCAR-3): 0.87 µM; GI50 (UACC-62): 0.31 µM; GI50 (DU-145): 0.43 µM; GI50 (MDA-MB-435): 1.97 µM; GI50 (HCT-116): 0.19 µM; GI50 (SN12C): 0.47 µM

`NCCCn1c2c(c3ccccc3c1=O)C(=O)c1ccccc1-2` [Compound 1 of (B)] was tested. Which IC50 (Tdp1) did it give?
Its IC50 is 12 to 37 µM.

What does the source list for `Cn1c2c(c3ccc(NCC(=O)O)cc3c1=O)C(=O)c1ccccc1-2` [Compound 41 of (B), 2-[(6-Methyl-5,11-dioxo-6,11-dihydro-5H-indeno[1,2-c]isoquinolin-3-yl)-amino]acetic Acid]?
Top1 (compound-induced DNA cleavage, semiquantitative scale) (Human recombinant Top1): 0; IC50 (Tdp1): > 111 µM; Tdp1 inhibitory activity (in words) (Tdp1; listed as 41): inactivity; also recorded: inactive

What does the source list for `COC(=O)CCC(=O)Nc1ccc2c3c(n(CCCN)c(=O)c2c1)-c1ccccc1C3=O` [Compound 24 of (B), Methyl 4-[(6-(3-Aminopropyl)-5,11-dioxo-6,11-dihydro-5H-indeno[1,2-c]isoquinolin-3-yl)amino]-4-oxobutanoate]?
Top1 (compound-induced DNA cleavage, semiquantitative scale) (Human recombinant Top1): (+); IC50 (Tdp1): 37 to 111 µM

Which results are given for `COc1ccc2c(c1)-c1c(c3ccc([N+](=O)[O-])cc3c(=O)n1CCCn1ccnc1)C2=O` [Compound 52 of (B), 6-(3-(1H-Imidazol-1-yl)propyl)-8-methoxy-3-nitro-5H-indeno[1,2-c]isoquinoline-5,11(6H)-dione]?
suppression of DNA cleavage at high drug concentration (Human recombinant Top1; 100 μM): slight suppression; Top1 (compound-induced DNA cleavage, semiquantitative scale) (Human recombinant Top1): +++; GI50 [1]: 0.02 µM; MGM ([1]; listed as 52): 0.02 ± 0.0006 µM; GI50 (OVCAR-3): 0.03 µM; GI50 (UACC-62): < 0.01 µM; Tdp1 (IC50, semiquantitative scale) (Tdp1): (+); Tdp1 inhibitory activity (in words) (Tdp1): very weak or inactive; GI50 (DU-145): < 0.01 µM; GI50 (MDA-MB-435): 0.03 µM; GI50 (HCT-116): < 0.01 µM; GI50 (SN12C): < 0.01 µM; GI50 (HOP-62): < 0.01 µM

With `COc1ccc2c(c1)-c1c(c3ccc([N+](=O)[O-])cc3c(=O)n1CCCN=[N+]=[N-])C2=O` [Compound 50 of (B), 6-(3-Azidopropyl)-5,6-dihydro-8-methoxy-3-nitro-5,11-dioxo-11H-indeno[1,2-c]isoquinoline] as the compound, how does the “Top1 (compound-induced DNA cleavage, semiquantitative scale)” value (Human recombinant Top1) read?
The value was “+”.

What about the IC50 (Tdp1) of the same compound?
The IC50 was over 111 µM.

And the “Tdp1 inhibitory activity (in words)” value (Tdp1)?
Its value is “very weak or inactive”.

For `Cl.NCCCCn1c2c(c3ccccc3c1=O)C(=O)c1ccccc1-2` [Compound 71 of (A)], which “Top1 inhibition (semiquantitative scale)” value (Human recombinant Top1; series (A), relative to 1 μM camptothecin) is on record?
The value was “+++ (between 75% and 95% activity)”.

How did the GI50 [1] turn out when `COc1ccc2c(c1)C(=O)c1c-2n(CCCN)c(=O)c2cc([N+](=O)[O-])ccc12` [Compound 54 of (B)] was run?
Its GI50 is 0.02 µM.

And the “MGM” value ([1]; listed as 54)?
Its value is 0.02 ± 0.0008 µM.

And the GI50 (UACC-62)?
Its GI50 is under 0.01 µM.

And the GI50 (HCT-116)?
Its GI50 is under 0.01 µM.

And the GI50 (SN12C)?
The GI50 was under 0.01 µM.

What about the GI50 (HOP-62) of the same compound?
Its GI50 is under 0.01 µM.

With `Cl.NCCCCCCCCCCCCn1c2c(c3ccccc3c1=O)C(=O)c1ccccc1-2` [Compound 79 of (A)] as the compound, how does the “Top1 (compound-induced DNA cleavage due to Top1 inhibition)” value (Human recombinant Top1; relative to 1 μM camptothecin) read?
Its value is 0/+.

What about the IC50 (Tdp1; [2]) of the same compound?
Its IC50 is 15 µM.
